Several values for one entry are separate records, joined by “and”; a condition that tells them apart may be missing. Equal entries are not always repeated. Entries after “also recorded” stand apart in the source; their conditions may differ.

The subject of experiment [1] is CUG960 RNA nuclear foci / MBNL-GFP in HeLa cells. The experiment can be described thus: CUG foci formation and MBNL-GFP sequestration in HeLa cells transfected with MBNL-GFP and CUG960. Type of experiment: cell-based. Particulars: 50 μM. The protocol: HeLa cells were plated in 6 well plates onto coverslips pre-treated with poly-L-lysine. Cells were transfected as described in Example 3. For transfection, 50 ng of MBNL-eGFP plasmid and 500 ng of CUG960 plasmid were transfected for each experiment. A total of 1 μg of plasmid DNA was transfected, with the additional amount being empty pcDNA3 vector. After transfection, pentamidine was added and the cells were fixed 16 hours later.
Cells were fixed for 15 min at room temperature (RT) with 4% paraformaldehyde and washed 5 times for 2 min in 1×PBS at RT. Cells were stored at 4° C., if not probed immediately. For fluorescence in situ hybridization, cells were permeabilized with 2% pre-chilled acetone in 1×PBS, at RT for 5 min. Cells were pre-washed with 30% formamide, 2×SSC for 10 min at RT. Cells were then probed for 2 hours at 37° C., with 1 ng/μl Cy3 CAG10 probe (Integrated DNA Technologies, Coralville, Iowa) in 30% formamide, 2×SSC, 0.02% BSA, 66 μg/ml yeast tRNA, 2 mM vanadyl complex. The cells were washed for 30 min in 30% formamide, 2×SSC at 42° C., then with 1×SSC for 30 min at RT. […] MBNL-eGFP was visualized using GFP fluorescence, exciting from 450-490 nm and visualizing at 520 nm. […]
Cells were scored by eye with the following criteria. […] 201 cells were scored for the MBNL-GFP and CUG960 double transfection. 242 cells treated with pentamidine (50 μM) were scored. […]

Experiment [2] has as its system IR splicing reporter in HeLa cells. In words: IR splicing reporter (exon 11 inclusion) in HeLa cells with or without CUG960 plasmid. Type of experiment: cell-based. Particulars: for Rescue of IR reporter mis-splicing: cells expressing 960 CUG repeats. The protocol: (§1) HeLa cells were grown in monolayers in DMEM with GlutaMAX™ (Gibco, Carlsbad, Calif.) and supplemented with 10% fetal bovine serum. Approximately 2.0 (±0.2)×10^5 cells were plated in 6 well plates and transfected 18-20 hours later at 70-90% confluency. 1 μg of plasmid was transfected into each well of cells, using 5 μL of […] (Invitrogen) according to the manufacturer's protocols. For co-transfection, 1 μg of total plasmid was transfected, at 500 ng of each construct. Test compounds were added 4 hours after transfection, when the media was changed. Cells were harvested 18-22 hours after transfection using TrypLE™ reagent (Gibco).
(§2) Immediately following harvesting, RNA was isolated from the cell pellets using an RNeasy® kit (Qiagen, Valencia, Calif.). 500 ng of isolated RNA was DNased with RQI DNase (Promega, Madison, Wis.) according to manufacture's protocol. 100 ng of DNAsed RNA was reverse transcribed with Superscript® II (Invitrogen, Carlsbad, Calif.) and a cTNT-specific reverse primer according to manufacturer's protocols. 30 ng of the reverse transcription reaction was subjected to 22-25 rounds of PCR amplification using cTNT specific primers spiked with a forward primer 5′ end-labeled with [γ-^32P]ATP. Similar methods were used to reverse transcribe and amplify IR and PLEKHH2. […] The resulting PCR products were run on a 6% (19:1) polyacrylamide denaturing gel. The gel was subsequently autoradiographed and quantitation of the radioactive bands was performed using ImageQuant® software.
(§3) The following primer pairs were used. For the cTNT minigene, the forward primer was […] (SEQ ID NO: 1), and the reverse primer was […] (SEQ ID NO: 2). For the IR minigene, the forward primer was […] (SEQ ID NO: 3), and the reverse primer was […] (SEQ ID NO: 4). The underlined sections are for cloning purposes. For the PLEKHH2 minigene, the forward primer was […] (SEQ ID NO: 5), and the reverse primer was […] (SEQ ID NO: 6).
The ability of pentamidine to alter the splicing defects observed in a cell-based model for DM was tested. […]

In experiment [3] the test system is PLEKHH2 minigene in HeLa cells. In words: PLEKHH2 minigene splicing in HeLa cells. Type of experiment: cell-based. The settings on record: with or without CUG repeats. The protocol:
as §1
Immediately following harvesting, RNA was isolated from the cell pellets using an RNeasy® kit (Qiagen, Valencia, Calif.). 500 ng of isolated RNA was DNased with RQI DNase (Promega, Madison, Wis.) according to manufacture's protocol. 100 ng of DNAsed RNA was reverse transcribed with Superscript® II (Invitrogen, Carlsbad, Calif.) and a cTNT-specific reverse primer according to manufacturer's protocols. 30 ng of the reverse transcription reaction was subjected to 22-25 rounds of PCR amplification using cTNT specific primers spiked with a forward primer 5′ end-labeled with [γ-^32P]ATP. […] The gel was subsequently autoradiographed and quantitation of the radioactive bands was performed using ImageQuant® software. […]

Experiment [4] concerns the target CUG repeats (fluorescein labeled RNA). The experiment can be described thus: Fluorescence anisotropy, direct binding to fluorescein labeled CUG repeats. The settings on record: absence of MBNL, 25° C. The protocol:
Fluorescent RNAs were ordered from Dharmacon RNA Technologies (Lafayette, Colo.), and deprotected according to the manufacturer's protocol. RNA was snap annealed in 175 mM NaCl, 20 mM Tris pH 7.5, 5 mM MgCl2. All fluorescence anisotropy experiments were performed in this buffer, with the addition of 0.1 mg/ml of heparin when using protein. Experiments were performed at 25° C. in a 7.5 mm wide Spectrosil® far UV quartz cuvette (Starna Cells, Inc, Atascadero, Calif.), using an L-format FluoroMax®-3 fluorimeter (Horiba Jobin Yvon, Inc., Edison, N.J.). Each anisotropy run was normalized by setting the initial value of the anisotropy of the RNA alone to zero, which converts the data into Δ anisotropy. Curves were graphed using KaleidaGraph (Synergy) software. For curve fitting of titrations and determining apparent Kd values, Equation 1 was used (Example 1). The error bars on the binding curve were obtained by averaging individual titration points from three separate experiments and calculating the standard deviation.
To determine if pentamidine binds to the CUG repeats and not to MBNL, fluorescein labeled CUG repeats (FIG. 3A) were used to monitor the binding of pentamidine directly to the CUG repeats in the absence of MBNL.

The subject of experiment [5] is cTNT splicing reporter in HeLa cells. The experiment can be described thus: cTNT splicing reporter (exon 5 inclusion) in HeLa cells with or without CUG960 plasmid. Type of experiment: cell-based. The settings on record: for cTNT exon 5 inclusion: absence of CUG repeats; for Rescue of cTNT exon 5 inclusion: cells expressing 960 CUG repeats. The protocol: as §1, §2, §3
The ability of pentamidine to alter the splicing defects observed in a cell-based model for DM was tested. This was accomplished in a system using cells transformed with a plasmid expressing 960 CUG repeats where the expression of these CUG repeats causes splicing defects similar to those observed in DM cells and DM subjects (Savkur et al., Nature Genet. 29:40-47, 2001).

As for `N=C(N)c1ccc(OCCCCCOc2ccc(C(=N)N)cc2)cc1` [pentamidine], in experiment [1], the “Characteristics of CUG RNA foci” value is listed as “the foci became increasingly more diffuse”. In addition, the “MBNL sequestration to foci” value in experiment [1] is “partially relieved in many cells”. Besides, the “Rescue of IR reporter mis-splicing” value in experiment [2] (25 μM) is given as “partially rescued”; in experiment [2] (50 μM), “fully rescued; also recorded: fully rescue the IR mis-splicing”. Further, in experiment [2] (cells lacking the CUG repeats), the “Effect on splicing of the IR reporter” value was “did not affect the splicing of the IR reporter”. The “Effect on PLEKHH2 minigene splicing” value in experiment [3] is reported as “Splicing was unchanged”. Further, the Kd in experiment [4] was ~19 µM and 19 µM. For the same compound, the “cTNT exon 5 inclusion” value in experiment [5] (25 μM) was found to be 62%; in experiment [5] (75 μM), 30%. The figures for the “Rescue of cTNT exon 5 inclusion” value in experiment [5] (25 μM), in experiment [5] (50 μM) and in experiment [5] (75 μM) were “no effect”, “partial rescue; also recorded: partially rescue the cTNT mis-splicing” and “full recovery”, respectively. The “Concentration giving complete rescue of cTNT missplicing” value in experiment [5] (presence of the CUG960 construct) amounted to 75 µM.
